Read-outs that look alike come from different tables or passages of the source. Starred links: 1 amine or outer side, 2 acyl side, 3 side chain; linkers in the order of their positions; H or OH if unused. Positions of bridges follow the written chain, without caps; N, C: chain ends. Residues, ends and D or L forms follow the SMILES beside them. *: point of attachment. TBMB = c1c(C[*:1])cc(C[*:3])cc1C[*:2]; X1 = [N-]=[N+]=NCCOCCOCCOCC(=O)*
What was measured:
RbAp48 [1] = molecular target: T1, RbAp48 (Homo sapiens, UniProt Q09028); experiment: Competitive fluorescence polarization (FP) assay using complex of peptide 1 and RbAp48; format: binding; set-up: Full length RbAp48 was cloned; His tag followed by 3C cleavage site (N, cleaved yes); made in house; host or cells: Sf9 insect cells
T1 sequence (Q09028 whole entry): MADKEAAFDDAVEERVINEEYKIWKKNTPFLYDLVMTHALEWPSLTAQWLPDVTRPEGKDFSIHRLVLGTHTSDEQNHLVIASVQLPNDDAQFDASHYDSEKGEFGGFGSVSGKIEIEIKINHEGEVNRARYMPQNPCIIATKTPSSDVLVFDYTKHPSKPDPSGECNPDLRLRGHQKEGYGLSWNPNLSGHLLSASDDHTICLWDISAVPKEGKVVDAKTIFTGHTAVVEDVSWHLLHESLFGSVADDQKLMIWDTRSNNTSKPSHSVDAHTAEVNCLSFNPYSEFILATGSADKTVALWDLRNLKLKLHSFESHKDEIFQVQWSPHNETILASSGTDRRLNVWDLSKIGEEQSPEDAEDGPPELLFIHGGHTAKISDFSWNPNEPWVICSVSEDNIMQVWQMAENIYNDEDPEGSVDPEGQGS
Procedure, shortened: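 Sf9-expressed full-length RbAp48 (tag cleaved), 15 nM, displaced from 1 nM fluorescent peptide tracer in 20 mM Tris-HCl pH 7.5, 150 mM NaCl, 0.01% Tween-20. Read by FP (ex 485/em 535 nm) after 30 min at room temperature.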

p53 = p53 expression level assay (western blot); format: cell-based; details: U2OS cells, 10 µM, 24 h, p53 vs alpha tubulin, two biological replicates
Text: Encouraged by the promising results from the pulldown experiment, and in order to get insight into bioactivity and possible mode of action, we analyzed peptide 33 in a morphological cell painting assay. The cell painting assay is a target agnostic assay which determines a cells morphological profile after treatment with a compound of interest and compares it to the profiles of a set of reference compounds. ^[22] By identifying reference compounds with a similar profile a hypothesis of the compounds mode of action can be generated based on their annotated targets. ^[23] U2OS cells were treated with our compound and 579 parameters were analyzed. […] We therefore synthesized a variant modified with an N‐terminal TAT sequence to enhance its permeability (compound 49, see Table 1 and Supplemental Figure 4). ^[24] […] Applying compound 49 to the cell painting assay led to an induction of 5.9 % and the corresponding profile was compared to the set of 3000 reference compounds. […] To validate this hypothesis, we exposed U2OS cells to compound 49 and evaluated the levels of p53 by Western blot. […]
U2OS cells were incubated with 10 µM compound 49, 50 or DMSO (DMSO 0.5%) for 24 h followed by lysis for western blotting analysis. p53 ex pression was monitored using fluorescent antibody. Signal ration between p53 and loading control (alpha tubulin) was measured. […]

RbAp48 [2] = molecular target: T1, RbAp48; experiment: Pull-down with peptides immobilized on DBCO beads from MDA-MB-231 nuclear lysate; format: binding; set-up: RbAp48 was pulled down from nuclear lysate of MDA‐MB‐231 cells; endogenous in cells; host or cells: MDA-MB-231 nuclear lysate; details: 60 µM probe immobilized on DBCO beads, 1.5 h at 4°C, immunoblot
Experimental: To evaluate whether peptide 33 interacts with RbAp48 in a more complex biological environment we modified the N‐terminus with a linker bearing a terminal azide (47, see Table 1, supplemental Figure 4). The peptides were immobilized on DBCO‐beads via copper‐free click chemistry and exposed to MDA‐MB‐231 nuclear lysate. As a negative control an azide modified scrambled peptide sequence (48) with affinity >10 μM was used.
Nuclear lysate of MDA-MB-231 cells was prepared using a Subcellular Protein Fractionation Kit (Thermo Scientific) according to the manufacturer’s instructions. DBCO agarose beads (100 µl) were washed with buffer A ( 50 mM Tris-HCl, 150 mM NaCl, 1 mM DTT, 1% (v/v) Triton X -100, pH 7.4, cOmplete™ EDTA-free Protease Inhibitor Cocktail ) three times. The beads were incubated overnight at 4°C in a solution containing either 47, 48 or no probe (500 µl containing 60 µM probe). After immobilization, the beads were washed again with buffer A three times followed by incubation with the nuclear lysate (500 µl) and incubated for 1.5 h at 4°C. After incubat ion beads were washe d with buffer B (50 mM Tris-HCl, 500 mM NaCl, 1 mM DTT, 1% (v/v) Triton X -100, pH 7.4, cOmplete™ EDTA - free Protease Inhibitor Cocktail ) three times. Protein was eluted by adding SDS sample buffer and loaded the mixture directly on SDS -page gel for analysis. […]

U2OS cells = experiment: Morphological cell painting assay; format: cell-based; details: U2OS cells, 20 h, 579 parameters, fraction of significantly changed parameters vs DMSO; 10, 3 or 1 µM
Text: Encouraged by the promising results from the pulldown experiment, and in order to get insight into bioactivity and possible mode of action, we analyzed peptide 33 in a morphological cell painting assay. The cell painting assay is a target agnostic assay which determines a cells morphological profile after treatment with a compound of interest and compares it to the profiles of a set of reference compounds. ^[22] By identifying reference compounds with a similar profile a hypothesis of the compounds mode of action can be generated based on their annotated targets. ^[23] U2OS cells were treated with our compound and 579 parameters were analyzed. […] We therefore synthesized a variant modified with an N‐terminal TAT sequence to enhance its permeability (compound 49, see Table 1 and Supplemental Figure 4). ^[24] […] Applying compound 49 to the cell painting assay led to an induction of 5.9 % and the corresponding profile was compared to the set of 3000 reference compounds. […] To validate this hypothesis, we exposed U2OS cells to compound 49 and evaluated the levels of p53 by Western blot. […] The exact mechanism by which the compounds elevate levels of p53 requires further investigation. However, it has previously been shown that the NuRD complex, of which RbAp48 is a core component, is able to deacetylate p53 and thereby modulate its stability. ^[26] The effect is mediated by the MTA family of proteins from which the compounds described here are derived. […]
The described assay follows closely the method described by Bray et al. Initially, 5 µl U2OS medium were added to each well of a 384 -well plate (PerkinElmer CellCarrier -384 Ultra). Subsequently, U2OS cell were seeded with a density of 1600 cells per well in 20 µl medium. The plate was incubated for 10 min at the ambient temperatu re, followed by an a dditional 4 h incubation (37 °C, 5 % CO2). Compound treatment was performed with the Echo 520 acoustic dispenser (Labcyte) at final concentrations of 10 µM, 3 µM or 1 µM. Incubation with compound was performed for 20 h (37 °C, 5 % CO2). Subsequently, mitoc hondria were stained with Mito Tracker Deep Red (Thermo Fisher Scientific, Cat. No. M22426). The Mito Tracker Deep Red stock solution (1 mM) was diluted to a final concentration of 100 nM in prewarmed medium. The medium was removed fr om the plate leaving 1 0 µl residual volume and 25 µl of the Mito Tracker solution were added to each well. 22 The plate was incubated for 30 min in darkness (37 °C, 5 % CO2). To fix the cells 7 µl of 18.5 % formaldehyde in PBS were added, resulting in a fi nal formaldehyde conce ntration of 3.7 %. Subsequently, the plate was incubated for another 20 min in darkness (RT) and washed three times with 70 µl of PBS. (Biotek Washer Elx405). Cells were permeabilized by addition of 25 µl 0.1 % Triton X -100 to each well, followed by 15 min incubation (RT) in darkness. The cells were washed three times with PBS leaving a final volume of 10 µl. To each well 25 µl of a staining solution were added, which contains 1 % BSA, 5 µl/mL Phalloidin (Thermo Fisher Scientific, A123 81), 25 µg/ml Concanav alin A (Thermo Fisher Scientific, Cat. […]
conjugate (Thermo Fisher Scientific, Cat. No. W11262) and […] SYTO 14 solution (Thermo Fisher Scientific, Cat. No. S7576). The plate is incubated for 30 min (RT) in darkness and washed three times with 70 µl PBS. After the final washing step the PBS was not aspirated. The plates were sealed and centrifuged for 1 min at 500 rpm.
The plates were prepare d in triplicates with shifted layouts to reduce plate effects and imaged using a Micro XL High-Content Screening System (Molecular Devices) in 5 channels (DAPI: Ex350 -400/ Em410- […]
The generated images were processed with the CellProfiler package (https://cellprofiler.org/, version 3.0.0) on a computing cluster of the Max Planck Society to extract 1716 cell features (parameters) per microscope site. The data was then further aggregated as medians per well (9 sites -> 1 well), then […]

[3] = Table 1, competitive FP, tracer peptide 1 1 nM, RbAp48 15 nM, 20 mM Tris-HCl, 150 mM NaCl, 0.01% Tween-20, pH 7.5, 30 min room temperature, lower limit set by 15 nM protein, read-out: IC50

SMILES	IC50 (RbAp48 [1]; [3]) [nM]	FP activity in words (RbAp48 [1]; competitive FP assay)	levels of p53 (p53)	IC50 (RbAp48 [1]; competitive FP assay, read-out: IC50 / affinity) [nM]	enrichment of RbAp48 in pull-down (RbAp48 [2])	induction (U2OS cells) [%]
N=C(N)NCCC[C@H](NC(=O)CN)C(=O)N[C@@H](CCCCN)C(=O)N[C@@H](CCCCN)C(=O)N[C@@H](CCCNC(=N)N)C(=O)N[C@@H](CCCNC(=N)N)C(=O)N[C@@H](CCC(N)=O)C(=O)N[C@@H](CCCNC(=N)N)C(=O)N[C@@H](CCCNC(=N)N)C(=O)N[C@@H](CCCNC(=N)N)C(=O)N1CCC[C@H]1C(=O)N[C@@H](CCC(N)=O)C(N)=O [Peptide 50, reference compound]	1240 ± 358	weakly inhibit the interaction	no increase			
C[C@@H]1NC(=O)[C@H](CCCNC(=N)N)NC(=O)[C@@H]2CCCN2C(=O)[C@@H](NC(=O)COCCOCCOCCN=[N+]=[N-])CSCc2cc3cc(c2)CSC[C@@H](C(=O)N[C@@H](CCCCN)C(N)=O)NC(=O)[C@H](CCCNC(=N)N)NC(=O)[C@@H]2CCCN2C(=O)[C@H](C)NC(=O)[C@H]([C@@H](C)O)NC(=O)[C@H](CCCCN)NC(=O)[C@H](Cc2ccc(O)cc2)NC(=O)[C@H](CCCNC(=N)N)NC(=O)[C@H](CSC3)NC1=O [Peptide 48] (X1-CPRACRYKTAPRCK-NH2; linker 1-5-13 via TBMB; N-terminus assumed)	> 10000			> 10000	no interaction	
C[C@H](NC(=O)[C@@H]1CSCc2cc3cc(c2)CSC[C@H](NC(=O)[C@H](CCCNC(=N)N)NC(=O)[C@H](CCCCN)NC(=O)[C@H]([C@@H](C)O)NC(=O)[C@@H](NC(=O)COCCOCCOCCN=[N+]=[N-])CSC3)C(=O)N[C@@H](C)C(=O)N[C@@H](CCCNC(=N)N)C(=O)N[C@@H](CCCNC(=N)N)C(=O)N2CCC[C@H]2C(=O)N[C@@H](Cc2ccc(O)cc2)C(=O)N[C@@H](CCCCN)C(=O)N2CCC[C@H]2C(=O)N1)C(N)=O [Peptide 47] (X1-CTKRCARRPYKPCA-NH2; linker 1-5-13 via TBMB; N-terminus assumed)	13.9 ± 5.6				successfully able to enrich RbAp48	
C[C@H](NC(=O)[C@@H]1CSCc2cc3cc(c2)CSC[C@H](NC(=O)[C@H](CCCNC(=N)N)NC(=O)[C@H](CCCCN)NC(=O)[C@H]([C@@H](C)O)NC(=O)[C@@H](NC(=O)CNC(=O)[C@H](CCC(N)=O)NC(=O)[C@@H]2CCCN2C(=O)[C@H](CCCNC(=N)N)NC(=O)[C@H](CCCNC(=N)N)NC(=O)[C@H](CCCNC(=N)N)NC(=O)[C@H](CCC(N)=O)NC(=O)[C@H](CCCNC(=N)N)NC(=O)[C@H](CCCNC(=N)N)NC(=O)[C@H](CCCCN)NC(=O)[C@H](CCCCN)NC(=O)[C@H](CCCNC(=N)N)NC(=O)CN)CSC3)C(=O)N[C@@H](C)C(=O)N[C@@H](CCCNC(=N)N)C(=O)N[C@@H](CCCNC(=N)N)C(=O)N2CCC[C@H]2C(=O)N[C@@H](Cc2ccc(O)cc2)C(=O)N[C@@H](CCCCN)C(=O)N2CCC[C@H]2C(=O)N1)C(N)=O [Peptide 49] (H-GRKKRRQRRRPQGCTKRCARRPYKPCA-NH2; linker 14-18-26 via TBMB)	4.4 ± 1.4	slightly more active than its parent compound 33	increased			5.9

From paper PMC7894522, “Structure Based Design of Bicyclic Peptide Inhibitors of RbAp48” (Angewandte Chemie (International Ed. in English), 2020)
